Data on 11 molecules can be found in patent US4835252A, “Vasoactive intestinal peptide analogs” (The Salk Institute Biotechnology/Industrial Associates, Inc., priority 1987, dated 1989).

The subject of data set [1] is dispersed guinea pig pancreatic acinar cells. As to the kind of experiment: Amylase-release assay with dispersed pancreatic acinar cells. Conditions: ED50 for the human VIP standard divided by ED50 for the analog; 30 minutes at 37° C. In kind it is cell-based. The method, then: The bioactivity of analogs of Example I, chicken VIP, guinea pig VIP, and human VIP without amidation at the carboxy-terminus was determined, relative to that of naturally occurring human VIP, by an amylase-release assay employing dispersed guinea pig pancreatic acinar cells. The assay was essentially that described by Peikin et al., Am. J. Physiol. 235, E743-E749 (1978).
For the assays conducted each day, dispersed acinar cells, free of debris, were freshly prepared from a pancreas of a male or female guinea pig (120-150 gm), following generally the method described by Peikin et al., supra.
The procedure employed a "standard incubation medium," which consisted of 95 mM NaCl; 6 mM KCl; 2.5 mM NaH2 PO4; 5 mM each of sodium pyruvate, sodium fumarate and sodium glutamate; 0.5 mM CaCl2, 1.0 mM MgCl2, 11.5 mM glucose, 0.05 mg/ml glutamine; amino acids and vitamius from Eagle's Minimum Essential Medium at their concentration in such Eagle's Medium; 25 mM HEPES; 0.08 mg/ml soybean trypsin inhibitor (Calbiochem); pH 7.4.
The animal was sacrificed, its pancreas removed and the pancreas trimmed of fat, blood vessels, duodenum and the like. With a syringe with a 25 gauge needle, 10.0 ml of collagenase solution (standard incubation medium with 0.2 mg/ml C. histolyticum collagenase and 2 mg/ml BSA (Fraction V) (both from Calbiochem, San Diego, California, U.S.A.)) was injected into the pancreas, which was then transferred to a 25 ml flask, gassed with 100% O2, and shaken on a shaker as rapidly as possible for 10 minutes at 37° C. Then the liquid was poured off and replaced with another 5.0 ml of collagenase solution, and the gassing with 100% O2 and shaking for 10 minutes at 37° C. were repeated. The replacement of liquid, gassing with 100% O2 and shaking at 37° C. were again repeated. If, by visual inspection, digestion appeared to be incomplete, vigorous shaking by hand with 1 minute incubation at 37° C. were repeated until digestion was complete. The mass was then broken up further by passing chunks through a large bore serological pipette, and then a small bore pipette. Very large chunks, fur and debris were removed with a long Pasteur pipette. Then half of the resulting acinar cell suspension was placed into each of two 15 ml clear, polystyrene tubes, each containing 4.0 ml of 4.0% BSA solution (standard incubation medium with 40 mg/ml BSA (Fraction V) and 2 mM, rather than 0.5 mM, CaCl2). Both combinations were mixed thoroughly and debris was again removed. The resulting suspensions were spun at medium speed in a tabletop centrifuge for 30 seconds, the supernatants were discarded, and the pellets were resuspended in 4.0 ml of 4.0% BSA and 4.0 ml of 0.2% BSA solution (standard suspension medium with 2 mg/ml BSA (Fraction V) and 2 mM, rather than 0.5 mM, CaCl2), the suspension was again cleaned of debris, and then spun as above with the tabletop centrifuge. The supernatants were discarded and the pellets again washed with 4.0 ml of 4% BSA solution and repelleted as above with the tabletop centrifuge. Again, the supernatants were discarded and the pellets were carried into one 250 ml Erlenmeyer flask, to which 50.0 ml of 1% BSA solution (standard incubation medium with 10 mg/ml BSA (Fraction V) and 5 mM theophylline) had been added. When the cells were not used immediately, the suspension was gassed with 100% O2. The preparation was acceptable for use in an assay only if the cells were fine and well dispersed and there was nothing visible in the preparation other than cells. […]

In data set [2] the target is VIP receptors in rat lung membrane. How it is done: Radioreceptor assays were carried out to determine the affinities of analogs of Example I for VIP receptors in rat lung membrane, following Leroux et al., Endocrinology 114, 1506-1512 (1984).
The following buffers were prepared:
Buffer A: 250 mM sucrose, 5 mM MgCl2, 25 mM Tris, pH 7.4
Buffer B: 5 mM MgCl2, 25 mM Tris, pH 7.4
Buffer C: 25 mM Tris, 5 mM MgCl2, 1 mg/ml bacitracin, 2 mg/ml bovine serum albumin ("BSA"), pH 7.4
Phenylmethylsulfonyl fluoride ("PMSF") was added, to a final concentration of 1 mM, to the buffers immediately prior to their use.
^125 I-labeled, human VIP (^125 I-VIP) was purchased from New England Nuclear (Boston, Mass., U.S.A.). The peptide as purchased was diluted to 10^-5 Ci/ml with Buffer C and stored in 25 ul or 50 ul aliquots at -20° C., which were subsequently diluted with Buffer C, as described below, for the assays.
Rat lung membrane was prepared for the assay as follows, following Leroux et al., supra: Five female Sprague-Dawley rats (200-250 g) were sacrificed and their hearts perfused with iced, phosphate-buffered saline (PBS) through the right atrium (approximately 30 ml PBS per rat). The lungs, which were whitened, were then removed and placed directly in iced PBS and any blood was rinsed from the tissue. The lung tissue was then transferred to a weighing device on ice; blood vessels, fat and the like were removed from the tissue; and the tissue was blotted and weighed. The lung tissue was then transferred to a 50 cm^3 Falcon tube with 2 ml of Buffer A per g lung tissue (approximately 25 ml Buffer A) and homogenized at 4° C. 1 minute in a polytron (Brinkmann Instruments Co., Westbury, N.Y., U.S.A.) and then with a glass/teflon homogenizer (approximately 5-6 strokes). The homogenate was filtered through two layers of cheesecloth, and the filtrate was then transferred to tubes for centrifugation at 30,000×g for 10 minutes. The pellets were then resuspended in approximately 70 ml of Buffer B using a glass/teflon homogenizer and the resulting suspensions were again centrifuged at 30,000×g for ten minutes. The resulting pellets were resuspended in 50 ml of Buffer B using a glass/teflon homogenizer. The suspension was divided into 1.0 ml aliquots in microfuge tubes, which were quickly frozen and stored on dry ice until use.
When used, an aliquot of suspension was thawed and microfuged at 4° C. for several minutes to pellet suspended material. The supernatant was carefully removed and the pellet resuspended in 1 ml of Buffer C.
Prior to use of a VIP receptor-containing suspension in an assay, the protein concentration was adjusted to 2 mg/ml by addition of Buffer C. Then 100 ul of this suspension (2 mg/ml) was combined with 100 ul of solution of ^125 I-VIP, 100 ul of solution of the VIP or analog thereof being assayed and 200 ul of Buffer C; consequently, the concentration of protein from the rat lung VIP receptor preparations used in the assays was 0.4 mg/ml.
In the radioreceptor assays, the ability of analog to displace ^125 I-VIP from binding in the receptor preparation was measured by a standard procedure. For each analog, and naturally occurring human VIP as standard, a series of solutions, of 500 ul total volume in Buffer C, containing various concentrations of analog or standard (between about 10^-11 M and 10^-6 M), ^125 I-VIP at 100 cpm/ul (about 2×10^-10 M), and receptor preparation (0.4 mg protein/ml) were assayed.

Data set [3] is described as follows: Stability against proteolytic degradation in crude rat-lung homogenate. Particulars: 10^-5 M peptide in crude rat lung homogenate, 37° C., intact peptide by HPLC.
Method: The stability of naturally occurring, human VIP and various analogs described in Example I was assessed by determining their resistance to degradation when incubated with a crude rat-lung homogenate.
For the assay, the lungs were taken from a female Sprague-Dawley rat and were perfused with ice-cold phosphate-buffered saline, as described in Example II. The whitened lungs were polytroned and then homogenized in Degradation Assay Buffer (25 mM Tris, 5 mM MgCl2, pH 7.4), and the homogenate was filtered through cheesecloth. The filtrate was then diluted to a final volume of 500 ml with Degradation Assay Buffer, to yield the crude lung homogenate.
Resistance to degradation was measured by determining the half-life of the human VIP or analog in the crude lung homogenate. To determine these half-lives, the human VIP or analog was added to 1 ml of the crude homogenate to a concentration of 10^-5 M, and the mixture was incubated at 37° C. After incubation for the desired time period, the sample was placed in a 100° C. bath and boiled for 5 minutes, and then acidified with glacial acetic acid (10% final volume) and, finally, cooled rapidly by being placed on dry ice. The sample was then microfuged at 4° C. for 15 minutes, and the supernatant analysized for peptide content by HPLC.

pIC50: −log10 of the molar value. No end group written: not given here.

Take `CC[C@H](C)[C@H](NC(=O)[C@H](CO)NC(=O)[C@H](CC(N)=O)NC(=O)[C@H](CC(C)C)NC(=O)[C@H](Cc1ccc(O)cc1)NC(=O)[C@H](CCCCN)NC(=O)[C@H](CCCCN)NC(=O)[C@@H](NC(=O)[C@H](C)NC(=O)[C@H](CCSC)NC(=O)[C@H](CCC(N)=O)NC(=O)[C@H](CCCCN)NC(=O)[C@H](CCCNC(=N)N)NC(=O)[C@H](CC(C)C)NC(=O)[C@H](CCCNC(=N)N)NC(=O)[C@@H](NC(=O)[C@H](Cc1ccc(O)cc1)NC(=O)[C@H](CC(N)=O)NC(=O)[C@H](CC(=O)O)NC(=O)[C@@H](NC(=O)[C@H](Cc1ccccc1)NC(=O)[C@@H](NC(=O)[C@H](C)NC(=O)[C@H](CC(=O)O)NC(=O)[C@H](CO)NC(=O)[C@@H](N)Cc1c[nH]cn1)C(C)C)[C@@H](C)O)[C@@H](C)O)C(C)C)C(=O)N[C@@H](CC(C)C)C(=O)N[C@@H](CC(N)=O)C(N)=O` [Human VIP, HSDAVFTDNYTRLRKQMAVKKYLNSILN-NH2, reference compound]: the “Potency (Amylase Release Assay)” value in data set [1] is given as 1.0. In addition, in data set [2] (read-out: concentration required to displace half of the 125I-VIP / occupy half the receptor sites, rat lung membrane receptor preparation at 0.4 mg protein/ml), the pIC50 was approximately 9.30. The same molecule displayed an HALF-LIFE in data set [3] of 16 min.

In the case of `CC[C@H](C)[C@H](NC(=O)[C@H](CO)NC(=O)[C@H](CC(N)=O)NC(=O)[C@H](CC(C)C)NC(=O)[C@H](Cc1ccc(O)cc1)NC(=O)[C@H](CCCCN)NC(=O)[C@H](CCCCN)NC(=O)[C@@H](NC(=O)[C@H](C)NC(=O)[C@H](CCSC)NC(=O)[C@H](CCC(N)=O)NC(=O)[C@H](CCCCN)NC(=O)[C@H](CCCNC(=N)N)NC(=O)[C@H](CC(C)C)NC(=O)[C@H](CCCNC(=N)N)NC(=O)[C@@H](NC(=O)[C@H](Cc1ccc(O)cc1)NC(=O)[C@H](CC(N)=O)NC(=O)[C@H](CC(=O)O)NC(=O)[C@@H](NC(=O)[C@H](Cc1ccccc1)NC(=O)[C@@H](NC(=O)[C@H](C)NC(=O)[C@H](CC(=O)O)NC(=O)[C@H](CO)NC(=O)[C@@H](N)Cc1c[nH]cn1)C(C)C)[C@@H](C)O)[C@@H](C)O)C(C)C)C(=O)N[C@@H](CC(C)C)C(=O)N[C@@H](CC(N)=O)C(=O)O` [reference compound], the “Potency (Amylase Release Assay)” value in data set [1] is 0.4.

With “H-HSDAVFSDSYSRFRRSMAVRRYLSNVLT-NH2 [Analog V, HSDAVFSDSYSRFRRSMAVRRYLSNVLT-(NH2)i]”, the “Potency (Amylase Release Assay)” value in data set [1] is recorded as 0.2. Besides, the “RELATIVE IC50” value in data set [2] came out at 4.2. Further, in data set [3], the HALF-LIFE was 2.5 min.

“HSDALFTDTYTRLRKQMAMKKYLNSVLN-NH2 [Guinea Pig VIP, reference compound]”: the “Potency (Amylase Release Assay)” value in data set [1] is given as 0.05. Also, the “RELATIVE IC50” value in data set [2] is 20.

On to “HSDAVFTDNYSRFRKQMAVKKYLNSVLT-NH2 [Chicken VIP, reference compound]”, for which the “Potency (Amylase Release Assay)” value in data set [1] is reported as 0.5. Moreover, the “RELATIVE IC50” value in data set [2] worked out at 1.4.

Turning to “HSDAVFTDNYSRFRKQMAVRRFVNSVLT-NH2 [Analog IX, HSDAVFTDNYSRFRKQMAVRRFVNSVLT-(NH2)i]”, the “Potency (Amylase Release Assay)” value in data set [1] was 7 × 10^-4. For the same molecule, in data set [2], the “RELATIVE IC50” value is recorded as 175.

Consider “HSDAVFTDNYSRYRRQMAVKKYLNSVLT-NH2 [Analog VII, HSDAVFTDNYSRYRRQMAVKKYLNSVLT-(NH2)i]”, for which, in data set [1], the “Potency (Amylase Release Assay)” value is listed as 1.0 × 10^-3. In addition, in data set [2], the “RELATIVE IC50” value turned out to be 86.

As for “HSDAVYSDSFRSYRSRVALSRFVRNVVT-NH2 [Analog III, HSDAVYSDSFRSYRSRVALSRFVRNVVT-(NH2)i]”, the “Potency (Amylase Release Assay)” value in data set [1] is 1.0 × 10^-3. In addition, the “RELATIVE IC50” value in data set [2] is reported as 2350. The same molecule gave an HALF-LIFE in data set [3] of 4 min.

On to “HSDAVYSDSFSRYRRSVALRRFVSNVVT-NH2 [Analog I, HSDAVYSDSFSRYRRSVALRRFVSNVVT-(NH2)i]”, for which, in data set [1], the “Potency (Amylase Release Assay)” value is 5 × 10^-4. For the same molecule, the “RELATIVE IC50” value in data set [2] was determined as 140. Also, the HALF-LIFE in data set [3] is 4 min.

As for “HSDAVYSDSFSRYRSRVALSRFVRNVVT-NH2 [Analog II, HSDAVYSDSFSRYRSRVALSRFVRNVVT-(NH2)i]”, the “Potency (Amylase Release Assay)” value in data set [1] is recorded as 1 × 10^-4. Also, the “RELATIVE IC50” value in data set [2] was determined as 550. Moreover, in data set [3], the HALF-LIFE turned out to be 7.5 min.

On to “HSDAVYTDNFSRYRKQVALKKFVNSVVT-NH2 [Analog IV, HSDAVYTDNFSRYRKQVALKKFVNSVVT-(NH2)i]”, for which the “Potency (Amylase Release Assay)” value in data set [1] is on record as 4.4 × 10^-3. In data set [2], the “RELATIVE IC50” value was determined as 1040. For the same molecule, the HALF-LIFE in data set [3] was 5 min.
